Values after ≈ are worked out from the molar mass of the structure shown. Residues, ends and D or L forms follow the SMILES beside them.
How the values were obtained:
K. pneumonia = assay: Killing kinetics; type: cell-based, Klebsiella pneumoniae; conditions: 4 µM peptide, 37°C, triplicates
Method: (§1) For measurement of killing kinetics, bacteria and peptides were prepared as described above. Fifty µl of bacteria were mixed with fifty µl of peptides at the concentrations corresponding to MBC and were incubated at 37°C. At the indicated time, bacteria were serially diluted and placed on Mueller-Hinton broth agar plates for the viability measurement.

pSUPER plasmid DNA = assay: Gel retardation assay (DNA binding); conditions: 30 minutes at 37°C, 1% agarose gel; N/P = peptide amino nitrogen / DNA phosphate
Method: The proportion between amino nitrogen (NH3 ^+) of HBc147-183 and phosphate (PO4 ^−) of DNA was defined as N/P ratio [35]. Briefly, HBc147-183 was incubated with pSUPER plasmid DNA at different N/P ratio (0, 0.2, 0.4, 0.6, 0.8, 1, 2, 3 and 4) for 30 minutes at 37°C. The mobility of pSUPER plasmid DNA was analyzed by electrophoresis on 1% agarose gel.

S. aureus = assay: Killing kinetics; type: cell-based, Staphylococcus aureus; conditions: 4 µM peptide (1×MBC), 37°C, triplicates
Method: as §1

Vero cells = assay: CFSE cell proliferation assay; type: cell-based, monkey; conditions: 5, 25 and 100 µM for 1 hour; flow cytometry
Method: To set up CFSE cell proliferation assay, 293 cells (human kidney origin) and Vero cells (monkey kidney origin) were resuspended in PBS to a final concentration of 10^6 cells/ml, before incubation with 10 µM CFSE dye (CellTrace CFSE cell proliferation kit, Invitrogen) at 37°C for 10 min. To quench the staining, ice-old culture media were then added and incubated on ice for 5 min. Labeled cells were then pelleted and washed three times by fresh medium containing 10% FBS before seeding into six well plates at a density of 3.3×10^5cells/well. After 20 h, the medium was removed and incubated with fresh medium containing 5, 25 and 100 µM HBc 147-183 for one hour (FITC-labeled ARD peptide had been largely internalized in 10 minutes after the addition of ARD peptides to the medium of HepG2 cells). Forty-eight hours later, cells were harvested and analyzed by flow cytometry (FACSCanto, BD Bioscience).

P. aeruginosa NHRI-02 = type: cell-based, Pseudomonas aeruginosa; conditions: NHRI-02, 3 h
From the text: (§2) Clinical isolates of Pseudomonas aeruginosa (NHRI-01, NHRI-02 and NHRI-04) were obtained through the program of Taiwan Surveillance of Antimicrobial Resistance (TSAR), National Health Research Institutes (NHRI), Taiwan. Acinetobacter baumannii (ATCC 17989, ATCC 17978 CR, ATCC19606, ATCC 19606 CR, TCGH 45530 and TCGH 46709) were obtained from Tzu-Chi Buddhist General Hospital (TCGH) in Taiwan, and clinical isolates (TCGH 45530 and TCGH 46709) were identified using the Vitek system (Biomerieux Vitek, Inc., Hazelwood, MO, USA). A. baumannii is defined as multidrug-resistant, when the organism is resistant to piperacillin, piperacillin-tazobactam, ampicillin/sulbactam, imipenem, ceftazidime, gentamicin, amikacin, tetracycline, chloramphenicol, ciprofloxacin, and cotrimoxazole. Susceptibility to colistin was determined using the broth-dilution method, in accordance with the guidelines of the Clinical and Laboratory Standards Institute (CLSI).
(§3) All peptides were purchased from Yao-Hong Biotechnology Inc. (Taipei, Taiwan). Vendors provided data of peptide characterizations, including HPLC and Mass (data not shown). Antimicrobial activity was determined as described with some modifications as detailed below. Bacteria were grown overnight in Mueller–Hinton broth (Difco) at 37°C, and during the mid-logarithmic phase, bacteria were diluted to 10^6 CFU (colony formation unit)/ml in phosphate buffer (10 mM sodium phosphate and 50 mM sodium chloride, pH 7.2). Peptides were serially diluted in the same buffer. Fifty microliter (µl) of bacteria was mixed with fifty µl of peptides at varying concentrations followed by incubation at 37°C for 3 hours without shaking. At the end of incubation, bacteria were placed on Mueller-Hinton broth agar plates, and allowed growth at 37°C overnight for measurement of minimal bactericidal concentration (MBC). […] All peptides were tested in triplicate.

P. aeruginosa NHRI-04 = type: cell-based, Pseudomonas aeruginosa; conditions: NHRI-04, 3 h
From the text: as §2, §3

P. aeruginosa NHRI-01 = type: cell-based, Pseudomonas aeruginosa; conditions: colistin-resistant P. aeruginosa of Table 2
From the text: as §2, §3

CC(C)[C@H](NC(=O)[C@@H](NC(=O)[C@@H](N)[C@@H](C)O)C(C)C)C(=O)N[C@@H](CCCNC(=N)N)C(=O)N[C@@H](CCCNC(=N)N)C(=O)N[C@@H](CCCNC(=N)N)C(=O)NCC(=O)N[C@@H](CCCNC(=N)N)C(=O)N[C@@H](CO)C(=O)N1CCC[C@H]1C(=O)N[C@@H](CCCNC(=N)N)C(=O)N[C@@H](CCCNC(=N)N)C(=O)N[C@@H](CCCNC(=N)N)C(=O)N[C@H](C(=O)N1CCC[C@H]1C(=O)N[C@@H](CO)C(=O)N1CCC[C@H]1C(=O)N[C@@H](CCCNC(=N)N)C(=O)N[C@@H](CCCNC(=N)N)C(=O)N[C@@H](CCCNC(=N)N)C(=O)N[C@@H](CCCNC(=N)N)C(=O)N[C@@H](CO)C(=O)N[C@@H](CCC(N)=O)C(=O)N[C@@H](CO)C(=O)N1CCC[C@H]1C(=O)N[C@@H](CCCNC(=N)N)C(=O)N[C@@H](CCCNC(=N)N)C(=O)N[C@@H](CCCNC(=N)N)C(=O)N[C@@H](CCCNC(=N)N)C(=O)N[C@@H](CO)C(=O)N[C@@H](CCC(N)=O)C(=O)N[C@@H](CO)C(=O)N[C@@H](CCCNC(=N)N)C(=O)N[C@@H](CCC(=O)O)C(=O)N[C@@H](CO)C(=O)N[C@@H](CCC(N)=O)C(=O)N[C@@H](CS)C(=O)O)[C@@H](C)O [HBc147-183] (H-TVVRRRGRSPRRRTPSPRRRRSQSPRRRRSQSRESQC-OH; N-terminus and C-terminus assumed)
Time to complete killing (K. pneumonia): 180 min | N/P ratio at which plasmid DNA was completely retarded (pSUPER plasmid DNA): 1 | Time to complete killing (S. aureus): 120 min | Effect on cell proliferation (CFSE intensity, day 3 vs mock) (Vero cells): no significant effect | MBC against colistin-sensitive P. aeruginosa (P. aeruginosa NHRI-02): 4 µM (≈ 18.4 µg/mL) | MBC (P. aeruginosa NHRI-04): 18.36 µg/mL (≈ 4 µM) | MBC against colistin-resistant P. aeruginosa (P. aeruginosa NHRI-01): > 16 µM
